Assay results reported in ChEMBL document CHEMBL1129713, “Inhibitors of MMP-1: an examination of P1 C gem-disubstitution in the succinamide hydroxamate series” (Bioorg Med Chem Lett, 1996).

What follows are compounds tested against T1, Interstitial collagenase (Homo sapiens, UniProt P03956) (assay: Inhibition of Matrix Metallo Proteinase-1 (MMP-1)).
T1 sequence (P03956 whole entry): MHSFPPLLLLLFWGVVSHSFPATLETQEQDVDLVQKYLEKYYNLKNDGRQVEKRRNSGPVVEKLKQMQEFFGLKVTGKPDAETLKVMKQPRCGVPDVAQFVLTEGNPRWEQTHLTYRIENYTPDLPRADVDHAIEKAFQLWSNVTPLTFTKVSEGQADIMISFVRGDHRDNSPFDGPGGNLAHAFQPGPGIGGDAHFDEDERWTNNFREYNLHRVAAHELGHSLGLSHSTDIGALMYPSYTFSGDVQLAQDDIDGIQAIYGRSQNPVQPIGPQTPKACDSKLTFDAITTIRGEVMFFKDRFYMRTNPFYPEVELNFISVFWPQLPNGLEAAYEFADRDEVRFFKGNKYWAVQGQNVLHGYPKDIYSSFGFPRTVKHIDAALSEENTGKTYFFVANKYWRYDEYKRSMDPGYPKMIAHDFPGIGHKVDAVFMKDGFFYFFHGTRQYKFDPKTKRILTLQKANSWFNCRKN

IC50 | SMILES
150 nM | CNC(=O)[C@H](Cc1ccc(OC)cc1)NC(=O)C1(CC(=O)NO)CCCCC1
460 nM | CNC(=O)[C@H](Cc1ccc(OC)cc1)NC(=O)C(C)(CC(=O)NO)CC(C)C (stereo partly specified)
2800 nM | CNC(=O)[C@H](Cc1ccc(OC)cc1)NC(=O)C1(CC(=O)NO)CCCC1
> 30000 nM | CNC(=O)[C@H](Cc1ccc(OC)cc1)NC(=O)[C@@]1(CC(=O)NO)CCc2ccccc21
570 nM | CNC(=O)[C@H](Cc1ccc(OC)cc1)NC(=O)C1(CC(=O)NO)Cc2ccccc2C1
17500 nM | CNC(=O)[C@H](Cc1ccc(OC)cc1)NC(=O)[C@]1(CC(=O)NO)CCc2ccccc21
3800 nM | CNC(=O)[C@H](Cc1ccc(OC)cc1)NC(=O)C(C)(CC(=O)NO)c1ccccc1 (stereo partly specified)
40 nM | CNC(=O)[C@H](Cc1ccc(OC)cc1)NC(=O)C(CC(=O)NO)c1ccccc1 (stereo partly specified)
770 nM | CNC(=O)[C@H](Cc1ccc(OC)cc1)NC(=O)C1(CC(=O)NO)CCCc2ccccc21 (stereo partly specified)
2200 nM | CNC(=O)[C@H](Cc1ccc(OC)cc1)NC(=O)C1(CC(=O)NO)Cc2ccccc21 (stereo in doubt; form 1)
800 nM | CNC(=O)[C@H](Cc1ccc(OC)cc1)NC(=O)C1(CC(=O)NO)Cc2ccccc21 (stereo in doubt; form 2)
